Reference: patent publication US20260365682A1, “MODULATORS OF TNF-ALPHA ACTIVITY” (Forward Therapeutics, Inc., priority 2022, published 2026)

Biological target: T1, TNF-α (Homo sapiens, UniProt P01375)
T1 construct: purchased R&D 210-TA-020/CF
Assay: TNF-α Induced HEK Blue Cellular Assay (secreted alkaline phosphatase expression, QUANTI-Blue)
Assay type: cell-based
Conditions: HEK Blue TNFα reporter cells; TNF-α 100 μg/ml; 24 hrs at 37° C.; inhibition of secreted alkaline phosphatase; read-out: IC50 value
Experimental: TNF-α Induced HEK Blue Cellular Assay
Test articles were diluted in DMSO and serially diluted into 384 well assay plate (Corning 3765), at final concentrations ranging from […] to 0.5 nM. HEK Blue™ TNFα reporter cells were added at a final density of 10,000 cell per well in assay media [DMEM (Gibco, cat #21063-029), 10% fetal bovine serum (ExcelBio, cat #FND500), 1% Penicillin-Streptomycin (Solarbio, cat #P1400-100]. TNF-α (R&D 210-TA-020/CF) was then added to the assay plate at a final concentration of […]. This plate was then incubated for 24 hrs at 37° C. and 5% CO2. Secreted alkaline phosphatase expression was then measured using QUANTI-Blue™ (Invivogen), according to manufacturer instructions and read on an Envision microplate reader at 620 nm.
Inhibition data for test compound over a range of concentration was plotted as percentage inhibition of the test compound (100%=maximum inhibition). IC50 values were determined after correcting for background [(sample read-mean of low control)/(mean of high control-mean of low control)] whereby the low control is DMSO without stimulation and high control is DMSO with stimulation. The IC50 is defined as the concentration of test compound which produces 50% inhibition and was quantified using the 4 parameter logistic equation to fit the data.

T1 sequence (P01375 77-233 limits assumed): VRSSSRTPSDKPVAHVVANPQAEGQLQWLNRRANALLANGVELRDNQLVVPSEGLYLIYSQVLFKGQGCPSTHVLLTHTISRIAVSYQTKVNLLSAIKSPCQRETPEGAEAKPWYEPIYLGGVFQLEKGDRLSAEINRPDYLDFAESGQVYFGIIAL

| SMILES | IC50 [nM] |
| --- | --- |
| [2H]C([2H])([2H])N1C(=O)c2cccc(OC(F)F)c2[C@H]2C[C@@H]1c1nc3ccc(C#Cc4cncnc4)cc3n12 [Example 11, (7R,14R)-1-(difluoromethoxy)-6-(methyl-d3)-11-(pyrimidin-5-ylethynyl)-6,7-dihydro-7,14-methanobenzo[f]benzo[4,5]imidazo[1,2-a][1,4]diazocin-5(14H)-one] | < 100 |
| [2H]C([2H])([2H])N1C(=O)c2cccc(OC(F)F)c2[C@H]2C[C@@H]1c1nc3ccc(C#Cc4cnnn4C)cc3n12 [Example 12, (7R,14R)-1-(difluoromethoxy)-6-(methyl-d3)-11-((1-methyl-1H-1,2,3-triazol-5-yl)ethynyl)-6,7-dihydro-7,14-methanobenzo[f]benzo[4,5]imidazo[1,2-a][1,4]diazocin-5(14H)-one] | 1000 to 10000 |
| [2H]C([2H])([2H])N1C(=O)c2cccc(OC(F)F)c2[C@H]2C[C@@H]1c1nc3ccc(C#Cc4ccnn4C)cc3n12 [Example 13, (7R,14R)-1-(difluoromethoxy)-6-(methyl-d3)-11-((1-methyl-1H-pyrazol-5-yl)ethynyl)-6,7-dihydro-7,14-methanobenzo[f]benzo[4,5]imidazo[1,2-a][1,4]diazocin-5(14H)-one] | < 100 |
| [2H]C([2H])([2H])N1C(=O)c2cccc(OC(F)F)c2[C@H]2C[C@@H]1c1nc3ccc(C#Cc4cn[nH]c4)cc3n12 [Example 14, (7R,14R)-11-((1H-pyrazol-4-yl)ethynyl)-1-(difluoromethoxy)-6-(methyl-d3)-6,7-dihydro-7,14-methanobenzo[f]benzo[4,5]imidazo[1,2-a][1,4]diazocin-5(14H)-one] | < 100 |
| [2H]C([2H])([2H])N1C(=O)c2cccc(OC(F)F)c2[C@H]2C[C@@H]1c1nc3ccc(C#Cc4cnn(CCN)c4)cc3n12 [Example 15, (7R,14R)-11-((1-(2-aminoethyl)-1H-pyrazol-4-yl)ethynyl)-1-(difluoromethoxy)-6-(methyl-d3)-6,7-dihydro-7,14-methanobenzo[f]benzo[4,5]imidazo[1,2-a][1,4]diazocin-5(14H)-one] | < 100 |
| [2H]C([2H])([2H])N1C(=O)c2cccc(OC(F)F)c2[C@H]2C[C@@H]1c1nc3ccc(C#Cc4cnc(C(C)(C)O)nc4)cc3n12 [Example 16, (7R,14R)-1-(difluoromethoxy)-11-((2-(2-hydroxypropan-2-yl)pyrimidin-5-yl)ethynyl)-6-(methyl-d3)-6,7-dihydro-7,14-methanobenzo[f]benzo[4,5]imidazo[1,2-a][1,4]diazocin-5(14H)-one] | < 100 |
| [2H]C([2H])([2H])N1C(=O)c2cccc(OC(F)F)c2[C@H]2C[C@@H]1c1nc3ccc(C#Cc4cncn4C)cc3n12 [Example 17, (7R,14R)-1-(difluoromethoxy)-6-(methyl-d3)-11-((1-methyl-1H-imidazol-5-yl)ethynyl)-6,7-dihydro-7,14-methanobenzo[f]benzo[4,5]imidazo[1,2-a][1,4]diazocin-5(14H)-one] | < 100 |
| [2H]C([2H])([2H])N1C(=O)c2cccc(OC(F)F)c2[C@H]2C[C@@H]1c1nc3ccc(C#Cc4cn(C)nn4)cc3n12 [Example 18, (7R,14R)-1-(difluoromethoxy)-6-(methyl-d3)-11-((1-methyl-1H-1,2,3-triazol-4-yl)ethynyl)-6,7-dihydro-7,14-methanobenzo[f]benzo[4,5]imidazo[1,2-a][1,4]diazocin-5(14H)-one] | < 100 |
| Cn1nncc1C#Cc1ccc2nc3n(c2c1)[C@@H]1C[C@H]3NC(=O)c2cccc(OC(F)F)c21 [Example 19, (7R,14R)-1-(difluoromethoxy)-11-((1-methyl-1H-1,2,3-triazol-5-yl)ethynyl)-6,7-dihydro-7,14-methanobenzo[f]benzo[4,5]imidazo[1,2-a][1,4]diazocin-5(14H)-one] | < 100 |
| [2H]C([2H])([2H])N1C(=O)c2cccc(OC(F)F)c2[C@H]2C[C@@H]1c1nc3ccc(C#Cc4cn(C)nc4C#N)cc3n12 [Example 20, 4-(((7R,14R)-1-(difluoromethoxy)-6-(methyl-d3)-5-oxo-5,6,7,14-tetrahydro-7,14-methanobenzo[f]benzo[4,5]imidazo[1,2-a][1,4]diazocin-11-yl)ethynyl)-1-methyl-1H-pyrazole-3-carbonitrile] | < 100 |
| [2H]C([2H])([2H])N1C(=O)c2cccc(OC(F)F)c2[C@H]2C[C@@H]1c1nc3ccc(C#Cc4cnc(C)nc4)cc3n12 [Example 21, (7R,14R)-1-(difluoromethoxy)-6-(methyl-d3)-11-((2-methylpyrimidin-5-yl)ethynyl)-6,7-dihydro-7,14-methanobenzo[f]benzo[4,5]imidazo[1,2-a][1,4]diazocin-5(14H)-one] | < 100 |

Results, then the molecule that gave them:

| IC50 [nM] | SMILES |
| --- | --- |
| < 100 | [2H]C([2H])([2H])N1C(=O)c2cccc(OC(F)F)c2[C@H]2C[C@@H]1c1nc3ccc(C#CC4CN(C5COC5)C4C)cc3n12 (single isomer, unassigned) [Example 258, (7R,14R)-1-(difluoromethoxy)-6-(methyl-d3)-11-(((2R or 2S)-2-methyl-1-(oxetan-3-yl)azetidin-3-yl)ethynyl)-6,7-dihydro-7,14-methanobenzo[f]benzo[4,5]imidazo[1,2-a][1,4]diazocin-5(14H)-one] |
| < 100 | CN1C(=O)c2cccc(OC(F)F)c2[C@H]2C[C@@H]1c1nc3ccc(C#Cc4cnn(C)c4)cc3n12 [Example 1, (1R,11R)-18-(difluoromethoxy)-12-methyl-5-[2-(1-methylpyrazol-4-yl)ethynyl]-2,9,12-triazapentacyclo[9.8.1.0^∧{2,10}.0^∧{3,8}. 0^∧{14,19}]icosa-3(8),4,6,9,14(19),15,17-heptaen-13-one] |
| < 100 | Cn1cc(C#Cc2ccc3nc4n(c3c2)[C@@H]2C[C@H]4NC(=O)c3cccc(OC(F)F)c32)cn1 [Example 2, (1R,11R)-18-(difluoromethoxy)-5-[2-(1-methylpyrazol-4-yl)ethynyl]-2,9,12-triazapentacyclo[9.8.1.0^∧{2,10}.0^∧{3,8}. 0^∧{14,19}]icosa-3(8),4,6,9,14(19),15,17-heptaen-13-one] |
| < 100 | O=C1N[C@@H]2C[C@H](c3c(OC(F)F)cccc31)n1c2nc2ccc(C#Cc3cncnc3)cc21 [Example 3, (1R,11R)-18-(difluoromethoxy)-5-[2-(pyrimidin-5-yl)ethynyl]-2,9,12-triazapentacyclo[9.8.1.0^∧{2,10}.0^∧{3,8}. 0^∧{14,19}]icosa-3(8),4,6,9,14(19),15,17-heptaen-13-one] |
| < 100 | CN1C(=O)c2cccc(OC(F)F)c2[C@H]2C[C@@H]1c1nc3ccc(C#Cc4cncnc4)cc3n12 [Example 4, (1R,11R)-18-(difluoromethoxy)-12-methyl-5-[2-(pyrimidin-5-yl)ethynyl]-2,9,12-triazapentacyclo[9.8.1.0^{2,10}.0^{3,8}.0^{14,19}]icosa-3(8),4,6,9,14(19),15,17-heptaen-13-one] |
| < 100 | CN1C(=O)c2cccc(OC(F)F)c2[C@H]2C[C@@H]1c1nc3ccc(C#Cc4cnn(CCO)c4)cc3n12 [Example 5, (1R,11R)-18-(difluoromethoxy)-5-{2-[1-(2-hydroxyethyl)pyrazol-4-yl]ethynyl}-12-methyl-2,9,12-triazapentacyclo[9.8.1.0^{2,10}.0^{3,8}.0^{14,19}]icosa-3(8),4,6,9,14(19),15,17-heptaen-13-one] |
| < 100 | O=C1N[C@@H]2C[C@H](c3c(OC(F)F)cccc31)n1c2nc2ccc(C#Cc3cnn(CCO)c3)cc21 [Example 6, (1R,11R)-18-(difluoromethoxy)-5-{2-[1-(2-hydroxyethyl)pyrazol-4-yl]ethynyl}-2,9,12-triazapentacyclo[9.8.1.0^{2,10}.0^{3,8}.0^{14,19}]icosa-3(8),4,6,9,14(19),15,17-heptaen-13-one] |
| < 100 | CCN1C(=O)c2cccc(OC(F)F)c2[C@H]2C[C@@H]1c1nc3ccc(C#Cc4cnn(C)c4)cc3n12 [Example 7, (1R,11R)-18-(difluoromethoxy)-12-ethyl-5-[2-(1-methylpyrazol-4-yl)ethynyl]-2,9,12-triazapentacyclo[9.8.1.0^{2,10}.0^{3,8}.0^{14,19}]icosa-3(8),4,6,9,14(19),15,17-heptaen-13-one] |
| < 100 | [2H]C([2H])([2H])N1C(=O)c2cccc(OC(F)F)c2[C@H]2C[C@@H]1c1nc3ccc(C#Cc4cnn(C)c4)cc3n12 [Example 8, (7R,14R)-1-(difluoromethoxy)-6-(methyl-d3)-11-((1-methyl-1H-pyrazol-4-yl)ethynyl)-6,7-dihydro-7,14-methanobenzo[f]benzo[4,5]imidazo[1,2-a][1,4]diazocin-5(14H)-one] |
| < 100 | CN1C(=O)c2cccc(OC(F)F)c2[C@H]2C[C@@H]1c1nc3ccc(C#Cc4cncn4C)cc3n12 [Example 9, (1R,11R)-18-(difluoromethoxy)-12-methyl-5-[2-(3-methylimidazol-4-yl)ethynyl]-2,9,12-triazapentacyclo[9.8.1.0^{2,10}.0^{3,8}.0^{14,19}]icosa-3(8),4,6,9,14(19),15,17-heptaen-13-one] |
| < 100 | [2H]C([2H])([2H])N1C(=O)c2cccc(OC(F)F)c2[C@H]2C[C@@H]1c1nc3ccc(C#Cc4cnn(CCO)c4)cc3n12 [Example 10, (7R,14R)-1-(difluoromethoxy)-11-((1-(2-hydroxyethyl)-1H-pyrazol-4-yl)ethynyl)-6-(methyl-d3)-6,7-dihydro-7,14-methanobenzo[f]benzo[4,5]imidazo[1,2-a][1,4]diazocin-5(14H)-one] |
